Here are results for five compounds from ChEMBL document CHEMBL3774356, “Definitive Metabolite Identification Coupled with Automated Ligand Identification System (ALIS) Technology: A Novel Approach to Uncover Structure-Activity Relationships and Guide Drug Design in a Factor IXa Inhibitor Program” (J Med Chem, 2016).

Molecules are shown by their SMILES.

In data set [1] the test system is Liver microsome. The data set is described as follows: Drug level in Sprague-Dawley rat liver microsomes treated with (R)-2,6-Dichloro-N-(2-(3-fluorophenyl)-2-(2-methyl-1Hbenzo[d]imidazol-5-yl)ethyl)-4-(3-methyl-1H-1,2,4-triazol-1-yl)-benzamide after 4 hrs by LC-MS/MS analysis. The class given is ADME. (Microsomes from liver hold many membrane-bound enzymes, among them those of drug oxidation.)

Data set [2] has as its system Liver microsome. Put plainly: Drug level in human liver microsomes treated with (R)-2,6-Dichloro-N-(2-(3-fluorophenyl)-2-(2-methyl-1Hbenzo[d]imidazol-5-yl)ethyl)-4-(3-methyl-1H-1,2,4-triazol-1-yl)-benzamide after 4 hrs by LC-MS/MS analysis. The format is ADME.
The target of a further data set is Coagulation factor IX (Homo sapiens, UniProt P00740). The data set is described as follows: Inhibition of human factor 9a using CH3SO2-DCHG-Gly-Arg-AFC.AcOH as substrate preinubated for 30 mins followed by substrate addition measured after 1 hr by fluorescence assay.
Data set [3] is described as follows: Retention time of the compound by size exclusion chromatography. The format is physicochemical. In general terms: SEC sorts molecules by how far they enter the pores of the column.
For data set [4], the system named is Liver microsome. Put plainly: Drug level in beagle dog liver microsomes treated with (R)-2,6-Dichloro-N-(2-(3-fluorophenyl)-2-(2-methyl-1Hbenzo[d]imidazol-5-yl)ethyl)-4-(3-methyl-1H-1,2,4-triazol-1-yl)-benzamide at 100 uM after 4 hrs by LC-MS/MS analysis. The format is ADME, Canis lupus familiaris.
The subject of data set [5] is Liver microsome. The data set is described as follows: Drug metabolism in Sprague-Dawley rat liver microsomes assessed as (R)-2,6-dichloro-N-(2-(3-fluorophenyl)-2-hydroxy-2-(2-methyl-1H-benzo[d]imidazol-5-yl)ethyl)-4-(3-methyl-1H-1,2,4-triazol-1-yl)benzamide formation after 4 hrs by LC-MS/MS analysis. The class given is ADME.
A further data set deals with Rattus norvegicus. Put plainly: Dose normalized AUC in Hans-Wistar rat at 2 mg/kg, po. The class given is ADME, organism-based. To be noted: in vivo.
Data set [6] relates to Liver microsome. Put plainly: Drug metabolism in Sprague-Dawley rat liver microsomes assessed as (R)-2,6-dichloro-N-(2-(3-fluorophenyl)-2-(2-methyl-1H-benzo[d]imidazol-5-yl)ethyl)-4-(3-(hydroxymethyl)-1H-1,2,4-triazol-1-yl)benzamide formation after 4 hrs by LC-MS/MS analysis. The class given is ADME.
In data set [7] the test system is Liver microsome. Put plainly: Drug metabolism in human liver microsomes assessed as (R)-2,6-dichloro-N-(2-(3-fluorophenyl)-2-(2-methyl-1H-benzo[d]imidazol-5-yl)ethyl)-4-(3-(hydroxymethyl)-1H-1,2,4-triazol-1-yl)benzamide formation after 4 hrs by LC-MS/MS analysis. The format is ADME.
The test system of data set [8] is Liver microsome. The data set is described as follows: Drug metabolism in beagle dog liver microsomes assessed as (R)-2,6-dichloro-N-(2-(3-fluorophenyl)-2-(2-methyl-1H-benzo[d]imidazol-5-yl)ethyl)-4-(3-(hydroxymethyl)-1H-1,2,4-triazol-1-yl)benzamide formation at 100 uM after 4 hrs by LC-MS/MS analysis. The class given is ADME, Canis lupus familiaris.
Data set [9] relates to Liver microsome. Put plainly: Drug metabolism in beagle dog liver microsomes assessed as (R)-2,6-dichloro-N-(2-(3-fluorophenyl)-2-hydroxy-2-(2-methyl-1H-benzo[d]imidazol-5-yl)ethyl)-4-(3-methyl-1H-1,2,4-triazol-1-yl)benzamide formation at 100 uM after 4 hrs by LC-MS/MS analysis. The format is ADME, Canis lupus familiaris.
Data set [10] has as its system Liver microsome. Put plainly: Drug metabolism in human liver microsomes assessed as (R)-2,6-dichloro-N-(2-(3-fluorophenyl)-2-hydroxy-2-(2-methyl-1H-benzo[d]imidazol-5-yl)ethyl)-4-(3-methyl-1H-1,2,4-triazol-1-yl)benzamide formation after 4 hrs by LC-MS/MS analysis. The class given is ADME.

Chain of Coagulation factor IX (P00740 47-191 limits assumed): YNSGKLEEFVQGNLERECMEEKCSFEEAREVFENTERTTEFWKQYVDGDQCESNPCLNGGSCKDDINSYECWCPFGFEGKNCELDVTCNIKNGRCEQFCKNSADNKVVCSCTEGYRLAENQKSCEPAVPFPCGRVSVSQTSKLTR
Chain of Coagulation factor IX (P00740 227-461 limits assumed): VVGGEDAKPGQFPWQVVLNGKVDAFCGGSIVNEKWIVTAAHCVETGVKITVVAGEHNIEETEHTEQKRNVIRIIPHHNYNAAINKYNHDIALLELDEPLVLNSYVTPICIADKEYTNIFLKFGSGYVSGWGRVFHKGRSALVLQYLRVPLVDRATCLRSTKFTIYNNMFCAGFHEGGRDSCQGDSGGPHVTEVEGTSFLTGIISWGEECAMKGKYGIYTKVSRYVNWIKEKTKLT

The term IC50 denotes the concentration that gives 50% inhibition. Read a low IC50 as greater potency. Consider `Cc1ncn(-c2cc(Cl)c(C(=O)NC[C@@H](c3ccc(O)c(F)c3)c3ccc4[nH]c(C)nc4c3)c(Cl)c2)n1`, for which the Drug metabolism result in the data set with Liver microsome [1] and in the data set on Liver microsome [2] was “metabolite_detected” throughout. Further, the concentration for half-maximal inhibition (IC50) against Coagulation factor IX came to 1.86 nM. Moreover, the Retention_time in [3] is recorded as 3.59 min.

On to `Cc1ncn(-c2cc(Cl)c(C(=O)NCC(O)(c3cccc(F)c3)c3ccc4[nH]c(C)nc4c3)c(Cl)c2)n1` (single isomer, unassigned), for which the Drug metabolism result with Liver microsome [1], with Liver microsome [2] and in the data set on Liver microsome [4] was “metabolite_detected” each time. This compound also displayed an IC50 at Coagulation factor IX of 63.9 nM. The compound also had a Retention_time in data set [3] of 4.24 min.

Usually Ki stands for a measure of affinity in units of concentration, obtained from inhibition or displacement. Read a high Ki as weaker binding. Consider `Cc1ncn(-c2cc(Cl)c(C(=O)NC[C@@H](c3cccc(F)c3)c3cc(F)c4[nH]c(C)nc4c3)c(Cl)c2)n1`, for which, at Coagulation factor IX, the Ki stood at 10.6 nM. This counts as double-digit nanomolar.

On to `Cc1nc2cc([C@@H](CNC(=O)c3c(Cl)cc(-n4cnc(CO)n4)cc3Cl)c3cccc(F)c3)ccc2[nH]1`, for which the Drug metabolism result in the data set on Liver microsome [1], in the data set on Liver microsome [2] and with Liver microsome [4] was “metabolite_detected” each time. Besides, half-maximal inhibition on Coagulation factor IX (IC50) required 11 nM. Further, in data set [3], the Retention_time is 3.84 min.

For the compound `Cc1ncn(-c2cc(Cl)c(C(=O)NC[C@@H](c3cccc(F)c3)c3ccc4[nH]c(C)nc4c3)c(Cl)c2)n1`, the Drug metabolism result in the data set with Liver microsome [5], in the data set on Liver microsome [6], in the data set on Liver microsome [7], with Liver microsome [8], in the data set with Liver microsome [9] and in the data set on Liver microsome [10] was “metabolite_detected” each time. This compound also came in with an AUC/dose with Rattus norvegicus of 0.097 µM·h/mg/kg. Besides, the IC50 at Coagulation factor IX was 9.99 nM.
